Experimental data as given in patent US10125078B1, “NSAID derivatives of omega-3 polyunsaturated acids as gamma secretase modulators” (Jiva Pharma, Inc., priority 2015, dated 2018).
Where “and” joins values, the source holds several entries; their conditions need not be identical. Identical values can stand only once. Like-named read-outs stand apart in the source and are kept apart here. One block for each molecule: values may come before it.

What was measured:
Aβ42 peptide = settings: cited from earlier work
[1] = compared with tarenflurbil; cited from earlier work
4 year old children = settings: cited from earlier work
gamma-secretase = target: T1, gamma-secretase (Homo sapiens, UniProt P49768); assay: gamma-secretase modulating activity in cell cultures of human neuroblastoma SHSY-5 cells, intracellular Aβ x-40 by ELISA; assay type: cell-based; settings: for experiment 1 / experiment 2 / experiment 3: Aβ ELISA signal, 0 nM about 100; for bestfit2 / bestfit3 / bestfit1: fitted curve; for average signal triplicates: cells incubated 18 h, ELISA OD 450 nm; for signal nomalised to cells: normalised to collected cell mass; for sign-bkgr: signal minus background; for IC50: read-out: calculated IC50
T1 construct: Fresh human neuroblastoma cells SHSY-5 were purchased from ATCC; host or cells: SH-SY5Y human neuroblastoma cells, untransfected
Protocol: The gamma-secretase modulating activity of Jiva compounds were determined in Cell Cultures of fresh human neuroblastoma SHSY-5 cells. The enzyme-linked immunosorbent assay (ELISA) is one of the most commonly used, reliable, and sensitive methods for quantitating the A β peptides. The detailed methods for the recovery of both soluble and deposited A β from brain tissue and the subsequent quantitation of the peptides by ELISA are thoroughly described in literature such as Stephen D. Schmidt, et al., “Amyloid, Enzyme-linked immunosorbent assay, ELISA, Extraction, Quantification”, Methods in Molecular Biology, vol. 849, DOI 10.1007/978-1-61779-551-0_34, Springer Science+Business Media, LLC 2012; Zeljko M. Svedruzic, et al., “Modulators of γ-Secretase Activity Can Facilitate the Toxic Side-Effects and Pathogenesis of Alzheimer's Disease”, PLOS ONE, 1 Jan. 2013|Volume 8|Issue 1; Catherine R. Burton et al., “The Amyloid-β Rise and γ-Secretase Inhibitor Potency Depend on the Level of Substrate Expression” Aug. 22, 2008 The Journal of Biological Chemistry 283, 22992-23003.
The well-studied γ-secretase inhibitor, semagacestat (WIKI) was used as a positive control in the above assays.
The following are procedures used for screening gamma-secretase modulating activity of Jiva compounds in cell cultures.
Protocol for Growing SHSY-5 Cells:
Fresh human neuroblastoma cells SHSY-5 were purchased from ATCC in the […]. All SHSY-5 cells were propagated and grown in p75 flasks, following the supplier's instructions. Briefly, SH-SY5Y cells were grown to confluence in Dulbecco's Modified Eagles Medium (DMEM) supplemented with 2 mM L-glutamine, 1× nonessential amino acids, and 0.22 micrometers filtered 10% heat inactivated fetal bovine serum (FBS) in a 5% CO2 humidified incubator at 37° C. Cultures were split twice a week and cells were seeded at 2.5×10^4 cells/cm^2. The cells were detached from the bottles after two phosphate buffer washes that were followed by 5 min treatment with 0.25% trypsine solution.
Protocol for Preparation of Jiva Compounds and the Initial Screening:
Jiva compounds were dissolved under sterile conditions in different volumes of molecular biology grade dimethylsulfoxide (DMSO) so that the final concentration was 200 mM, with the goal to screen in a concentration range from 50 to 1000 μM. Thus, between 1 μL to 20 µL of DMSO solution of each Jiva compound was added to 4 mL of sterile cell media with FBS adjusted to 1%. The cells were incubated with different compounds for 18 h (i.e. overnight). Following the incubation cells were tested for viability and morphology. The first viability criteria was attachment to the surface, the second viability criteria was resistance to trypan blue uptake. Only viable cells were harvested for ELISA screening.
Confluent cells were scraped from p25 cell-culture bottles and collected in pellets by centrifugation for 5 mins at 1000 g. To measure intracellular amyloid β, the centrifugation helps in concentrating Aβ1-40 peptides for measurements. About 40 micro grams of cell can be recovered from 4 mL cell medium in p25 cell culture bottles. The cell pellets were re-suspended in RIPA buffer and incubated on ice for 30 min.
RIPA buffer means 150 mM sodium chloride; 1% NP-40; 0.5% sodium deoxycholate; 0.1% SDS; 50 mM Tris pH 8.0.
Following lysis, the cell debris was separated by centrifugation, 1 h at 40,000×g. The clear supernatant was collected for ELISA measurements that followed immediately after the centrifugation.
ELISA measurements used IBL ELISA kits for Aβ x-40 using manufacturer's protocol and supplied standards. Briefly, for each measurement 100 μL sample was prepared from 12.5 μL lysis buffer and 87.5 μL ASSAYBUF solutions in each well. ASSAYBUF solution were supplied in the kit, and used to incubate cell lysate with anti-amyloid antibody attached to the wells in ELISA plates. The plate covered with plate-lid was incubated with gentle shaking overnight at 4° C. […]

mild AD patients = settings: cited from earlier work
[2] = 100000.0 nM, listed as JIVA002B
[3] = 1000000.0 nM, listed as JIVA002B

SMILES: O=C(O)C1(c2ccc(-c3ccc(Cl)c(Cl)c3)c(F)c2)CC1 [CHF-5074]
Aβ42 IC50 (Aβ42 peptide): potent | brain penetration [1]: greater brain penetration

SMILES: CC/C=C\C/C=C\C/C=C\C/C=C\C/C=C\C/C=C\CCC(=O)O [DHA, cis,cis,cis,cis,cis,cis-4,7,10,13,16,19-docosahexaenoic acid]
effects on cognitive function (4 year old children): beneficial effects

SMILES: CC(C)C[C@H](C(=O)O)c1cc(-c2ccc(C(F)(F)F)cc2)cc(-c2ccc(C(F)(F)F)cc2)c1 [JNJ-40418677]
Aβ42 IC50 (Aβ42 peptide): potent | brain penetration [1]: greater brain penetration

SMILES: C[C@@H](C(=O)O)c1ccc(-c2ccccc2)c(F)c1 [tarenflurbil]
potency at inhibiting formation of toxic Aβ42 peptide (Aβ42 peptide): low potency | outcome of large scale clinical trials (mild AD patients): failed large scale clinical trials

SMILES: CC/C=C\C/C=C\C/C=C\C/C=C\C/C=C\CCCCC1(C(=O)OC(C)(C)C)CC1 [JIVA 24, EPA Cyclopropyl-fibrate t-butyl Ester]
average signal triplicates (gamma-secretase; 7.13 microM): 0.300 | signal nomalised to cells (gamma-secretase; 7.13 microM): 0.233 | sign-bkgr (gamma-secretase; 7.13 microM): 0.246

Second part, the molecule after the results:

experiment 1 (gamma-secretase; 21.4 nM): 101 | experiment 2 (gamma-secretase; 21.4 nM): 103 | experiment 3 (gamma-secretase; 21.4 nM): 104 | bestfit2 (gamma-secretase; 21.4 nM): 100.0 | bestfit3 (gamma-secretase; 21.4 nM): 100.0 | bestfit1 (gamma-secretase; 21.4 nM, listed as JIVA002B): 100.0 and 99.9 | experiment 1 (gamma-secretase; 74.1 nM): 98 | experiment 2 (gamma-secretase; 74.1 nM): 102 | experiment 3 (gamma-secretase; 74.1 nM): 108 | bestfit2 (gamma-secretase; 74.1 nM): 99.9 | bestfit1 (gamma-secretase; 74.1 nM, listed as JIVA002B): 99.8 and 99.7 | bestfit3 (gamma-secretase; 74.1 nM, listed as JIVA002B): 99.9 and 99.8 | experiment 1 (gamma-secretase; 100.0 nM): 102 | experiment 2 (gamma-secretase; 100.0 nM): 99 | experiment 3 (gamma-secretase; 100.0 nM): 97 | bestfit1 (gamma-secretase; 100.0 nM, listed as JIVA002B): 99.8 and 99.6 | bestfit2 (gamma-secretase; 100.0 nM, listed as JIVA002B): 99.9 and 99.6 | bestfit3 (gamma-secretase; 100.0 nM, listed as JIVA002B): 99.9 and 99.5 | experiment 1 (gamma-secretase; 213.8 nM): 101 | experiment 2 (gamma-secretase; 213.8 nM): 95 | experiment 3 (gamma-secretase; 213.8 nM): 100 | bestfit1 (gamma-secretase; 213.8 nM, listed as JIVA002B): 99.5 and 99.1 | bestfit2 (gamma-secretase; 213.8 nM, listed as JIVA002B): 99.7 and 99.6 | bestfit3 (gamma-secretase; 213.8 nM, listed as JIVA002B): 99.7 and 99.5 | experiment 1 (gamma-secretase; 741.3 nM): 97 | experiment 2 (gamma-secretase; 741.3 nM): 100 | experiment 3 (gamma-secretase; 741.3 nM): 94 | bestfit1 (gamma-secretase; 741.3 nM, listed as JIVA002B): 98.5 and 97.0 | bestfit2 (gamma-secretase; 741.3 nM, listed as JIVA002B): 99.1 and 98.6 | bestfit3 (gamma-secretase; 741.3 nM, listed as JIVA002B): 99.0 and 98.3 | experiment 2 (gamma-secretase; 1000.0 nM): 101 | experiment 3 (gamma-secretase; 1000.0 nM): 104 | experiment 1 (gamma-secretase; 1000.0 nM, listed as JIVA002B): 96 and 95 | bestfit1 (gamma-secretase; 1000.0 nM, listed as JIVA002B): 97.8 and 96.0 | bestfit2 (gamma-secretase; 1000.0 nM, listed as JIVA002B): 99.8 and 98.2 | bestfit3 (gamma-secretase; 1000.0 nM, listed as JIVA002B): 98.6 and 97.8 | experiment 1 (gamma-secretase; 2138.0 nM): 90 | experiment 2 (gamma-secretase; 2138.0 nM): 98 | experiment 3 (gamma-secretase; 2138.0 nM): 90 | bestfit2 (gamma-secretase; 2138.0 nM, listed as JIVA002B): 97.5 and 96.2 | bestfit3 (gamma-secretase; 2138.0 nM, listed as JIVA002B): 97.1 and 95.4 | experiment 2 (gamma-secretase; 7413.1 nM): 85 | experiment 1 (gamma-secretase; 7413.1 nM, listed as JIVA002B): 90 and 75 | experiment 3 (gamma-secretase; 7413.1 nM, listed as JIVA002B): 96 and 79 | bestfit1 (gamma-secretase; 7413.1 nM, listed as JIVA002B): 85.6 and 76.4 | bestfit2 (gamma-secretase; 7413.1 nM, listed as JIVA002B): 91.9 and 87.9 | bestfit3 (gamma-secretase; 7413.1 nM, listed as JIVA002B): 90.5 and 85.6 | experiment 2 (gamma-secretase; 10000.0 nM): 85 | experiment 1 (gamma-secretase; 10000.0 nM, listed as JIVA002B): 88 and 71 | bestfit1 (gamma-secretase; 10000.0 nM, listed as JIVA002B): 81.5 and 70.6 | bestfit2 (gamma-secretase; 10000.0 nM, listed as JIVA002B): 89.4 and 84.4 | bestfit3 (gamma-secretase; 10000.0 nM, listed as JIVA002B): 87.7 and 81.5 | experiment 1 (gamma-secretase; 21379.5 nM, listed as JIVA002B): 73 and 58 | experiment 2 (gamma-secretase; 21379.5 nM, listed as JIVA002B): 73 and 62 | experiment 3 (gamma-secretase; 21379.5 nM, listed as JIVA002B): 79 and 64 | bestfit1 (gamma-secretase; 21379.5 nM, listed as JIVA002B): 57.3 and 52.9 | bestfit2 (gamma-secretase; 21379.5 nM, listed as JIVA002B): 79.7 and 71.6 | bestfit3 (gamma-secretase; 21379.5 nM, listed as JIVA002B): 76.9 and 67.3 | experiment 2 (gamma-secretase; 74131.0 nM): 46 | experiment 1 (gamma-secretase; 74131.0 nM, listed as JIVA002B): 28 and 18 | experiment 3 (gamma-secretase; 74131.0 nM, listed as JIVA002B): 57 and 33 | bestfit2 (gamma-secretase; 74131.0 nM, listed as JIVA002B): 53.1 and 42.1 | bestfit3 (gamma-secretase; 74131.0 nM, listed as JIVA002B): 48.9 and 37.2 | experiment 1 (gamma-secretase; [2]): 26 and 13 | experiment 2 (gamma-secretase; [2]): 49 and 33 | experiment 3 (gamma-secretase; [2]): 46 and 27 | bestfit2 (gamma-secretase; [2]): 45.7 and 35.1 | bestfit3 (gamma-secretase; [2]): 41.5 and 30.5 | experiment 1 (gamma-secretase; 1000000.0 nM): 2 | experiment 2 (gamma-secretase; 1000000.0 nM): 8 | experiment 3 (gamma-secretase; 1000000.0 nM): 2 | bestfit1 (gamma-secretase; [3]): 4.2 and 2.3 | bestfit2 (gamma-secretase; [3]): 7.7 and 5.1 | bestfit3 (gamma-secretase; [3]): 6.6 and 4.2 | average signal triplicates (gamma-secretase; 20 microM): 0.162 | signal nomalised to cells (gamma-secretase; 20 microM): 0.034 | sign-bkgr (gamma-secretase; 20 microM): 0.042 | IC50 (gamma-secretase; first, experiment 1): 44 µM and 24 µM | IC50 (gamma-secretase; second, experiment 2): 84 µM and 54 µM | IC50 (gamma-secretase; third, experiment 3): 71 µM and 44 µM
SMILES: CC/C=C\C/C=C\C/C=C\C/C=C\C/C=C\CCCCC(C(=O)O)C1CC1 (racemic) [JIVA 28, EPA Cyclopropyl-acetic acid-fibrate]

average signal triplicates (gamma-secretase; 2 microM): 0.12 | signal nomalised to cells (gamma-secretase; 2 microM): 0.000 | sign-bkgr (gamma-secretase; 2 microM): 0
SMILES: CC(C)[C@H](O)C(=O)N[C@@H](C)C(=O)N[C@@H]1C(=O)N(C)CCc2ccccc21 [SEMAGACESTAT, semagacestat, reference compound]

average signal triplicates (gamma-secretase; 20 microM): 0.355 | signal nomalised to cells (gamma-secretase; 20 microM): 0.201 | sign-bkgr (gamma-secretase; 20 microM): 0.236
SMILES: CC/C=C\C/C=C\C/C=C\CCCCCCCCC1(C(=O)O)CC1 [JIVA 27, ALA Cyclopropyl Fibrate]

average signal triplicates (gamma-secretase; 20 microM): 0.141 | signal nomalised to cells (gamma-secretase; 20 microM): 0.026 | sign-bkgr (gamma-secretase; 20 microM): 0.021
SMILES: CC/C=C\C/C=C\C/C=C\CCCCCCCCC(C(=O)O)C1CC1 (centres unmarked) [JIVA 29, ALA Cyclopropyl Acetic Acid Fibrate]

signal nomalised to cells (gamma-secretase; 20 microM): 0.209 and 0.130 | sign-bkgr (gamma-secretase; 20 microM): 0.316 and 0.173
SMILES: CC/C=C\C/C=C\C/C=C\CCCCCCCCC1(C(=O)OC(C)(C)C)CC1 [JIVA 25, ALA Cyclopropyl-fibrate t-butyl Ester]
